# Assay results taken from ChEMBL document CHEMBL5465560, “Selectivity Literature for EUbOPEN Chemogenomic Library” (2024).
# How the values were obtained:
# [1] = target: Casein kinase II subunit alpha (Homo sapiens, UniProt P68400); assay: Selectivity interaction (KinomeScan (DiscoverX)) EUB0000229b CSNK2A1; settings: at 10 µM
# [2] = target: Serine/threonine-protein kinase 26 (Homo sapiens, UniProt Q9P289); assay: Selectivity interaction (KinomeScan (DiscoverX)) EUB0000229b STK26; settings: at 10 µM
# Focal adhesion kinase 1 = Focal adhesion kinase 1 (Homo sapiens, UniProt Q05397); assay: Selectivity interaction (KinomeScan (DiscoverX)) EUB0000695a PTK2; settings: at 100 nM
# [3] = target: Lethal(3)malignant brain tumor-like protein 1 (Homo sapiens) (UniProt Q9Y468); assay: Selectivity interaction (Transferase panel (protein, RNA, and DNA methyltransferases. and EP300 (acetyltransferase))) EUB0000270b L3MBTL; settings: at 1 µM
# [4] = target: Cyclin-dependent kinase 17 (Homo sapiens) (UniProt Q00537); settings: at 10 µM
# [5] = target: Protein kinase C eta type (Homo sapiens) (UniProt P24723); assay: Selectivity interaction (Upstate Kinase Profiler service (Millipore)) EUB0000056c PRKCH; settings: at 1 µM
# [6] = target: Dual specificity protein kinase CLK1 (Homo sapiens, UniProt P49759); assay: Selectivity interaction (ProQinase) EUB0000171b CLK1
# [7] = target: 5-hydroxytryptamine receptor 2B (Homo sapiens, UniProt P41595); assay: Selectivity interaction (Eurofins safety panel) EUB0001564a HTR2B; settings: at 10 µM
# [8] = target: G protein-coupled receptor kinase 4 (Homo sapiens) (UniProt P32298); assay: Selectivity interaction (KinomeScan (DiscoverX)) EUB0001619a GRK4; settings: at 1 µM
# [9] = target: Serine/threonine-protein kinase 38 (Homo sapiens) (UniProt Q15208); assay: Selectivity interaction (ActivX KiNativ screen (ex vivo kinase selectivity in human PBMCs)) EUB0001619a STK38; type: cell-based; settings: PBMC, at 1 µM
# [10] = target: T1, Serine/threonine-protein kinase TAO3 (Homo sapiens) (UniProt Q9H2K8); assay: Selectivity interaction (KinomeScan (DiscoverX)) EUB0000607a TAOK3; settings: at 10 µM
# T1 sequence (whole entry): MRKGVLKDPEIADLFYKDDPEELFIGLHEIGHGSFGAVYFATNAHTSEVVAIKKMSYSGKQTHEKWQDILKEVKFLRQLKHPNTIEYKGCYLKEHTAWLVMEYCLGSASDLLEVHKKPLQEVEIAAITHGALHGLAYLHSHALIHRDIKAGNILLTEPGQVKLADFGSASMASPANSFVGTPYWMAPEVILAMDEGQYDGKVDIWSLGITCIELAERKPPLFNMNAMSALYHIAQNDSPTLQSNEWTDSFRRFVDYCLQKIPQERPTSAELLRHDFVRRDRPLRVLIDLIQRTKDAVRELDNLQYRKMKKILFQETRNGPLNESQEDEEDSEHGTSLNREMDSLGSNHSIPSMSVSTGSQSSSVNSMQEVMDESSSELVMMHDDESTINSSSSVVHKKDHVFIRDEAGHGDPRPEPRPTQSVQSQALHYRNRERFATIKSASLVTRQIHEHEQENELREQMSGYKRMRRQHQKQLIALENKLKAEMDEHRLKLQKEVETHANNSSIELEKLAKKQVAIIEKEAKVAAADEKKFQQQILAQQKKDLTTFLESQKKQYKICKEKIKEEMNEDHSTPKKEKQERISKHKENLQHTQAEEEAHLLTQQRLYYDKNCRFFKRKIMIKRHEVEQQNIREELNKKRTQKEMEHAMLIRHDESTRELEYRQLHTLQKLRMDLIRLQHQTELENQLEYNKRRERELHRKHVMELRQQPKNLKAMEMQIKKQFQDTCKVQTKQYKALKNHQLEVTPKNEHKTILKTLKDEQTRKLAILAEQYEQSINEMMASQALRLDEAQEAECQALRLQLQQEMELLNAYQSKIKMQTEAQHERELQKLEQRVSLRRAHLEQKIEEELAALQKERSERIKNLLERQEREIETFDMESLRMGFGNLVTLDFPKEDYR
# [11] = target: T2, Homeodomain-interacting protein kinase 4 (Homo sapiens) (UniProt Q8NE63); assay: Selectivity interaction (KinomeScan (DiscoverX)) EUB0000618a HIPK4; settings: at 10 µM
# T2 sequence (whole entry): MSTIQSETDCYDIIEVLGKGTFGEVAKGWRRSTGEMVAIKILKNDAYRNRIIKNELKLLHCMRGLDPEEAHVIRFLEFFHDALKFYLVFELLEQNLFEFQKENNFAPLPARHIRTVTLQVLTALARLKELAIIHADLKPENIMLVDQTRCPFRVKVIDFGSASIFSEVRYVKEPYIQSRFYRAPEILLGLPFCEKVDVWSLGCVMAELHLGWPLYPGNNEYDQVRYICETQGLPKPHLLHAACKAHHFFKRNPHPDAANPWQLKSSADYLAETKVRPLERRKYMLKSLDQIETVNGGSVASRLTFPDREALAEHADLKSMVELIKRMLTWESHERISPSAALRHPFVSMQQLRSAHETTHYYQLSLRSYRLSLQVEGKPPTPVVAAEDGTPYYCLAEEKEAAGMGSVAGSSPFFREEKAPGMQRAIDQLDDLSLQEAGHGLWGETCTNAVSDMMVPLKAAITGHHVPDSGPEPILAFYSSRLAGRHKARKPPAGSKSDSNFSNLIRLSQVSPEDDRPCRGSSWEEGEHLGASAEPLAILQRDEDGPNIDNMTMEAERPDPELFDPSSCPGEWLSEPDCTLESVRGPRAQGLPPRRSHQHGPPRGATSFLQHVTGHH
# [12] = target: T3, Dual specificity mitogen-activated protein kinase kinase 6 (Homo sapiens) (UniProt P52564); assay: Selectivity interaction (KinomeScan (DiscoverX)) EUB0000618a MAP2K6; settings: at 10 µM
# T3 sequence (whole entry): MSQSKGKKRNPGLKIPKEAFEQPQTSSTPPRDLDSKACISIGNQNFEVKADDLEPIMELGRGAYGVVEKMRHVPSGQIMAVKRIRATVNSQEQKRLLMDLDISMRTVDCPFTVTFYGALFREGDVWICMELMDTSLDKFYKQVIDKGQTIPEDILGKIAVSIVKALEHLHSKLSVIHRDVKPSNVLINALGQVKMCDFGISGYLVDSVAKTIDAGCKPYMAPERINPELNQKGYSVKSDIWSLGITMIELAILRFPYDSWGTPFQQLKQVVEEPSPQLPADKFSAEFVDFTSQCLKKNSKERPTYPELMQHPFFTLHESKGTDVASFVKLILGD
# [13] = target: Cyclin-dependent kinase-like 3 (Homo sapiens) (UniProt Q8IVW4); assay: Selectivity interaction (Ambit KINOMEscan and KiNATiv profiling in Jurkat cells) EUB0000090b CDKL3; type: cell-based; settings: at 1 µM
# Chain of Cyclin-dependent kinase-like 3 (Homo sapiens) (Q8IVW4 whole entry, looked up): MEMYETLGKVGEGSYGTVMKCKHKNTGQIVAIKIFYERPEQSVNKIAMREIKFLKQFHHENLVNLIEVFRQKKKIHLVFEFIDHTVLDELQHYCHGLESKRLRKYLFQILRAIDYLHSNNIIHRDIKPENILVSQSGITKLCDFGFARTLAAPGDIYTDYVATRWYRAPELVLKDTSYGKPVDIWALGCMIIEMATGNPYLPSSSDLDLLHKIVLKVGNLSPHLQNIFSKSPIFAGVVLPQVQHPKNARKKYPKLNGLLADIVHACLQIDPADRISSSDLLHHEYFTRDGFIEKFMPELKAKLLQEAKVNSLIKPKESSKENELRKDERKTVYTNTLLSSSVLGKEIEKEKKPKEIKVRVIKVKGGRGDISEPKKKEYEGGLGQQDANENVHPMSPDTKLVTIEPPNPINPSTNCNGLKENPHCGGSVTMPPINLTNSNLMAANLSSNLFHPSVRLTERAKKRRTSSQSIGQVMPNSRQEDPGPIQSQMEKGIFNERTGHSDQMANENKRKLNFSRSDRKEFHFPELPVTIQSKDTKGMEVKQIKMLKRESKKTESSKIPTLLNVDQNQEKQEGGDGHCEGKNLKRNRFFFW
# Chain of Dual specificity protein kinase CLK1 (P49759 whole entry, looked up): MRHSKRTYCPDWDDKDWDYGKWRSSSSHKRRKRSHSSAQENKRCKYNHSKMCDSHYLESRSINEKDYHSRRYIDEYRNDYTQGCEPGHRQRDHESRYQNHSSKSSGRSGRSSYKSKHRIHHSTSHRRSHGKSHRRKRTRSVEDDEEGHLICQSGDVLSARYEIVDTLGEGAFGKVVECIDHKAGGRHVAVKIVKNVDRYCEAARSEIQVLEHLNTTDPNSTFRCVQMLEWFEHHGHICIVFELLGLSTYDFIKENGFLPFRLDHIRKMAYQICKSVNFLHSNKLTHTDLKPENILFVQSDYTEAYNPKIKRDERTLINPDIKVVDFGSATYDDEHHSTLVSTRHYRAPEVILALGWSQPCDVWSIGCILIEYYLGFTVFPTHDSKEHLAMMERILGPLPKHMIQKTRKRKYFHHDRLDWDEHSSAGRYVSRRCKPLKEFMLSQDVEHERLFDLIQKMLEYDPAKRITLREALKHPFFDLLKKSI
# Chain of Serine/threonine-protein kinase 38 (Homo sapiens) (Q15208 2-465 limits assumed): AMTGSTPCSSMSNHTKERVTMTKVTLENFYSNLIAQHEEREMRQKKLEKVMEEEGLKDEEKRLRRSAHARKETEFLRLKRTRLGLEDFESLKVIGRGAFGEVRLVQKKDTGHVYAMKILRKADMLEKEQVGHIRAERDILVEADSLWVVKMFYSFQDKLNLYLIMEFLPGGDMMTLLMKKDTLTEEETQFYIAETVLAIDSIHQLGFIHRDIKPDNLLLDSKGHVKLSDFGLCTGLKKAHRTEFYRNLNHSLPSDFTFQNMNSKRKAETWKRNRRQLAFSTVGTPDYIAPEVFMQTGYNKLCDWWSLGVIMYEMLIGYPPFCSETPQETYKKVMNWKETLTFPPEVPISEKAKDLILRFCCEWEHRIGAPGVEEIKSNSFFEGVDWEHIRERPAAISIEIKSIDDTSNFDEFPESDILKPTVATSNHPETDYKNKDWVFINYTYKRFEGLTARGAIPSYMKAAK
# Chain of G protein-coupled receptor kinase 4 (Homo sapiens) (P32298 whole entry, looked up): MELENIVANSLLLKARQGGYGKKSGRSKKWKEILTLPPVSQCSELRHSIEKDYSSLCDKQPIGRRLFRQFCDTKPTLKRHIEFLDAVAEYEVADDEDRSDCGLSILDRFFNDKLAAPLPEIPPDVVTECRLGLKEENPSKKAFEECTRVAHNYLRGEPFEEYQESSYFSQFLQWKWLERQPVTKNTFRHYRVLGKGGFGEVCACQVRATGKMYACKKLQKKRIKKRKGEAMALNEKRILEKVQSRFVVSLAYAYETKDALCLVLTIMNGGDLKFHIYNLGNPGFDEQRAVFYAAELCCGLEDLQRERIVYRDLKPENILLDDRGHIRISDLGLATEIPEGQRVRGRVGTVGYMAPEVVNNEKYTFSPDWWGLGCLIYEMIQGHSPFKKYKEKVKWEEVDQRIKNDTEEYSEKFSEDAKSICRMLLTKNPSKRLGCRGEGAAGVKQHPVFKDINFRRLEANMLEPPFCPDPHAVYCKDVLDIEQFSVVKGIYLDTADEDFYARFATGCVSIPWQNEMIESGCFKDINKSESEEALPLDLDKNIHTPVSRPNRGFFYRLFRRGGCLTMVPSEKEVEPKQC
# Chain of Lethal(3)malignant brain tumor-like protein 1 (Homo sapiens) (Q9Y468 whole entry): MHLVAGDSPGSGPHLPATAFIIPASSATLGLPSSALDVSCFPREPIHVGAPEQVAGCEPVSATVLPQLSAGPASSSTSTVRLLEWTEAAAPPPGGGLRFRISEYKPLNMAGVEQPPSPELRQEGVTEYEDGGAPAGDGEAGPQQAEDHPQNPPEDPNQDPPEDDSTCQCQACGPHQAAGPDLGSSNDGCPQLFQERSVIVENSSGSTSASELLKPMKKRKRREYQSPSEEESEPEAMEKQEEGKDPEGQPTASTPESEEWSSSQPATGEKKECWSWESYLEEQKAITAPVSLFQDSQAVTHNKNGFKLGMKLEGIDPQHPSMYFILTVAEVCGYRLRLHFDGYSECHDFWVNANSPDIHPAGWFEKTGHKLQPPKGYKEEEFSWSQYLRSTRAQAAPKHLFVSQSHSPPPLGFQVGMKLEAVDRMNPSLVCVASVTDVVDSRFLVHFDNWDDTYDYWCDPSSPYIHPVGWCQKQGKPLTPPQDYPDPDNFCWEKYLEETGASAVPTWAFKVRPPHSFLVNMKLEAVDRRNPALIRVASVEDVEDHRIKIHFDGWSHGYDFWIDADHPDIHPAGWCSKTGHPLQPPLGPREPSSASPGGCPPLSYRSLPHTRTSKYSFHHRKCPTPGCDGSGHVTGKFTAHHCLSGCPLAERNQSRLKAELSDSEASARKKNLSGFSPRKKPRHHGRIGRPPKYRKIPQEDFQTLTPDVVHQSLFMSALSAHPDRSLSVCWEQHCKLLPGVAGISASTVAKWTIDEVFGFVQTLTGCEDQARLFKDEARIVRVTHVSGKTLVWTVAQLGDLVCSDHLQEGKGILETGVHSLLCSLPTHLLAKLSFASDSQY
# Chain of Casein kinase II subunit alpha (P68400 whole entry, looked up): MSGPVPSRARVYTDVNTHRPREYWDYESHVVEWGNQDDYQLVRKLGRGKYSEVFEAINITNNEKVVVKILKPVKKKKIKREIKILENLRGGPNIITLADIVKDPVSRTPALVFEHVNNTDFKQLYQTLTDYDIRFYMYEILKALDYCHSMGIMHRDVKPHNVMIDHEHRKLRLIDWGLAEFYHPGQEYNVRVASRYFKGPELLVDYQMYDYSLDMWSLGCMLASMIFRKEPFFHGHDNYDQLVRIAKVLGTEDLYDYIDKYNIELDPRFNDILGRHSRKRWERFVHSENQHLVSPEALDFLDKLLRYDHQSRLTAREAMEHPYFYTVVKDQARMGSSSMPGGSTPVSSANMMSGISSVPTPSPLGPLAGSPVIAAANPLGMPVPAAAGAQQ
# Chain of Protein kinase C eta type (Homo sapiens) (P24723 whole entry): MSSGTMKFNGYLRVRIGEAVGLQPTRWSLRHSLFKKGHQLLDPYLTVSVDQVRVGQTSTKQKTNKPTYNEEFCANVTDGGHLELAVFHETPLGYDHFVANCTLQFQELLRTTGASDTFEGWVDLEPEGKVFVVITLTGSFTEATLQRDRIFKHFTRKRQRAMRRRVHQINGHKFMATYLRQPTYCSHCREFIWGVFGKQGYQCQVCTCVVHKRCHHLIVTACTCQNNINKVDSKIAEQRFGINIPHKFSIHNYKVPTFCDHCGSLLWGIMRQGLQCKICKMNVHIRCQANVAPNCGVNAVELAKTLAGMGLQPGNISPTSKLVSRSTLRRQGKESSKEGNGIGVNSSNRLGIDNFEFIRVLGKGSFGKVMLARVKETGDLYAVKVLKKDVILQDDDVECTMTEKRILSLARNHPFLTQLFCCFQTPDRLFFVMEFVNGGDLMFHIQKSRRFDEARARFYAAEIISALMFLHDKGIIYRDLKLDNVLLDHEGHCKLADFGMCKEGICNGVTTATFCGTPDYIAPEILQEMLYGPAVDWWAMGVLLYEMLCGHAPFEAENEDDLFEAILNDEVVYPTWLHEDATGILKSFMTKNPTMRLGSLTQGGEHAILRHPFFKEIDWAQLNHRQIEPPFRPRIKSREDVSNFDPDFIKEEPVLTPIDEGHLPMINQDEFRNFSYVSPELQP
# Chain of Cyclin-dependent kinase 17 (Homo sapiens) (Q00537 whole entry, looked up): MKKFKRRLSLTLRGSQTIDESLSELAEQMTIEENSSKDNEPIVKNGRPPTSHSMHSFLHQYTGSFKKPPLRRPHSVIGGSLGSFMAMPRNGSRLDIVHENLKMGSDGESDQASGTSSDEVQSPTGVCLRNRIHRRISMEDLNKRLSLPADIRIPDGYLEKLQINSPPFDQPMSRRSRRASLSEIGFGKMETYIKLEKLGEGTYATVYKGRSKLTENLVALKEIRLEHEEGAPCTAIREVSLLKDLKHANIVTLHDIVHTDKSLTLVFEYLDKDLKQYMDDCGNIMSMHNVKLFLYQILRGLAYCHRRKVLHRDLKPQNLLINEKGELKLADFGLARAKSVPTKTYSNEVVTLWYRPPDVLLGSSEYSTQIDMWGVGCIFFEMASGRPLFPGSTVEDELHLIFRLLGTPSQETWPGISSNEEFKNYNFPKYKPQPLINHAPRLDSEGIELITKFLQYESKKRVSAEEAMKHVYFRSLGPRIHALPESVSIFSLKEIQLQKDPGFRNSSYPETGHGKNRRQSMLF
# Chain of Serine/threonine-protein kinase 26 (Q9P289 2-416 limits assumed): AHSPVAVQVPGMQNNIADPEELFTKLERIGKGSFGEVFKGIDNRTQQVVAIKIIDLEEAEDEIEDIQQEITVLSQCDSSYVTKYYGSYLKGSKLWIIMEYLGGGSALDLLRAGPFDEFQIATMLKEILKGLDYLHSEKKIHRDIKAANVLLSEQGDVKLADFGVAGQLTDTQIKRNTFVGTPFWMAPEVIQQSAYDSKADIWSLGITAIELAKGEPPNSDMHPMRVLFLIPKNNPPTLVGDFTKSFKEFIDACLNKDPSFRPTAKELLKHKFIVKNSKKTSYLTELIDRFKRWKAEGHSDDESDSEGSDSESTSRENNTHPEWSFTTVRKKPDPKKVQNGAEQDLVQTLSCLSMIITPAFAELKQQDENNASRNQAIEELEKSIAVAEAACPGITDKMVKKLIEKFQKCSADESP
smiles,measurement,setting,value
COc1cc(N(C)c2ccnc3ccc(C(F)(F)F)cc23)cc(OC)c1OC,% binding,[1],67%
same,% binding,[2],99%
Cc1cc(F)c(C(=O)Nc2cccc(-c3nncn3C(C)C)n2)cc1-n1cnc(C2CC2)c1,% of control,Focal adhesion kinase 1,100%
Cc1cc(CN)cc(C)c1-c1ncn(C)c1-c1cncn1C,% activity,[3],> 90%
Cc1cc([C@@H](C)Nc2ccccc2C(=O)O)c2nc(N3CCOCC3)cc(=O)n2c1 [AZD-6482],% of control,[4],100%
Cc1ccc(-c2ccc3c(ccc4sc5c(c43)NC[C@@H](C)NC5=O)n2)cn1,% of inhibition,[5],6%
C=CC(=O)Nc1cccc(C(=O)Nc2ccc(Nc3cc(-c4[nH]c(SC)nc4C)ccn3)cc2)c1,% of control,[6]; at 1 µM,67%
same,% of control,[6]; at 5 µM,37%
CC[C@@H](Nc1c(C#N)c(-c2ccc(-c3cccc(C)c3F)cc2)nc2cnccc12)C(=O)O [BAY-091],% of inhibition,[7],98%
N#Cc1cccc(-c2c[nH]c3ncnc(N4CCOCC4)c23)c1,% of control,[8],52%
same,% of inhibition,[9],4%
CNC(=O)Nc1ccc(-c2nc(N3CC4CCC(C3)O4)c3cnn(C4CCC5(CC4)OCCO5)c3n2)cc1,% of control,[10],90%
O[C@H]1CC[C@H](Nc2ncc3nc(Nc4c(F)cc(F)cc4F)n([C@H]4CCOC4)c3n2)CC1,% of control,[11],98%
same,% of control,[12],88%
CN(C)C/C=C/C(=O)Nc1ccc(C(=O)N2CCCC(Nc3ncc(Cl)c(-c4c[nH]c5ccccc45)n3)C2)cc1 (stereo not given),% of control,[13],100%
